Our source for the Papp A→B, IC50 and efflux ratio values is patent US20240059675A1, “PIPERIDINYLPYRIDINYLCARBONITRILE DERIVATIVES AS INHIBITORS OF GLUTAMINYL-PEPTIDE CYCLOTRANSFERASE AND GLUTAMINYL-PEPTIDE CYCLOTRANSFERASE LIKE PROTEIN” (Boehringer Ingelheim International GmbH, priority 2022, published 2024).

Data set [1] is described as follows: Assay C: permeability in CACO-2 cells. In kind it is in vitro ADME. Particulars: human, pH 7.2; for Papp A→B: Caco-2, apical to basolateral; for efflux ratio: Caco-2, permeability B-A / permeability A-B.
Data set [2] deals with SIRPα signalling induced by A549 cells. In words: Assay B: SIRPα signalling assay using A549 cells. In kind it is cell-based. As to conditions: Homo sapiens, 48 h compound incubation, Jurkat PathHunter SIRPαV1 reporter cells, read-out: Inhibition of SIRPα signalling induced by A549 cells: IC50. As for the experimental part: (§1) Two cell types are independently used: the Raji cell line (lymphoblast-like human cell line derived from B lymphocytes from a Burkitt's lymphoma patient in 1963) and A549 cells (adenocarcinomic human alveolar basal epithelial cells).
(§2) Test compounds were dissolved in 100% DMSO and serially diluted into a white 384-well microtiter cell culture plate (PerkinElmer #60076780 in case of Raji assay; PDL-coated plates Greiner #781945 in case of A549 assay). 5000 Raji cells (ATCC #CC86) or 5000 A549 cells (ATCC #CCL-185) in Assay Complete Cell Plating reagent 30 (DiscoverX 93-0563R30B) were added per well. The assay plate was incubated for 48 h at 37° C., 95% humidity and 5% CO2. 15000 reporter cells (Jurkat PathHunter SIRPαV1, DiscoverX #93-1135C19) were added to each well, and the plate was incubated for 5 h at 37° C., 95% humidity and 5% CO2. Bioassay reagent 1 of the PathHunter Bioassay detection kit (DiscoverX 93-0001) was added to each well of the plate using a multichannel pipette followed by a 15 min incubation at room temperature. Afterwards bioassay reagent 2 was added followed by 60 min incubation at room temperature (incubation in the dark).
(§3) The analysis of the data was performed using the luminescence signal generated by beta-galactosidase in the PathHunter reporter cell line. The luminescence measurement was done using a Pherastar Multi-Mode Reader. Dose-response curves & IC50 data were calculated with 4-parameter sigmoidal dose response formula.

For data set [3], the system named is SIRPα signalling induced by Raji cells. In words: Assay B: SIRPα signalling assay using Raji cells. Particulars: Homo sapiens, 48 h compound incubation, Jurkat PathHunter SIRPαV1 reporter cells, read-out: Inhibition of SIRPα signalling induced by Raji cells: IC50. Format: cell-based. As to the method: as §1, §2, §3
In a further data set the target is QPCT (Homo sapiens (Human), UniProt Q16769). In words: Assay A: biochemical QPCT activity assay (MALDI-TOF MS, CD47 peptide substrate). As to conditions: 0.5 nM enzyme, 20 μM CD47 peptide substrate; read-out: Inhibition of QPCT: IC50.
QPCT, sequence (Q16769 29-361): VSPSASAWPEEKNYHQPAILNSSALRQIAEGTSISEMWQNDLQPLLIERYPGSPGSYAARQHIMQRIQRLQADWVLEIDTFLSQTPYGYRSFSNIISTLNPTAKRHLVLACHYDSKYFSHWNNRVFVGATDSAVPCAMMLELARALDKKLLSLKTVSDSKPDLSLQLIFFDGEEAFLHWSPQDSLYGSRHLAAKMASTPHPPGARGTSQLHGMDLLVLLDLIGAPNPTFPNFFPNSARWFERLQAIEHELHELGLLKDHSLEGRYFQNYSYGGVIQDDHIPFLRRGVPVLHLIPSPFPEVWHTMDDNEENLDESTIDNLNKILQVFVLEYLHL
For the next data set, the target named is QPCTL (Homo sapiens (Human), UniProt Q9NXS2). In words: Assay A: biochemical QPCTL activity assay (MALDI-TOF MS, CD47 peptide substrate). Particulars: 0.5 nM enzyme, 10 μM CD47 peptide substrate; read-out: Inhibition of QPCTL: IC50.
QPCTL, sequence (Q9NXS2 whole entry): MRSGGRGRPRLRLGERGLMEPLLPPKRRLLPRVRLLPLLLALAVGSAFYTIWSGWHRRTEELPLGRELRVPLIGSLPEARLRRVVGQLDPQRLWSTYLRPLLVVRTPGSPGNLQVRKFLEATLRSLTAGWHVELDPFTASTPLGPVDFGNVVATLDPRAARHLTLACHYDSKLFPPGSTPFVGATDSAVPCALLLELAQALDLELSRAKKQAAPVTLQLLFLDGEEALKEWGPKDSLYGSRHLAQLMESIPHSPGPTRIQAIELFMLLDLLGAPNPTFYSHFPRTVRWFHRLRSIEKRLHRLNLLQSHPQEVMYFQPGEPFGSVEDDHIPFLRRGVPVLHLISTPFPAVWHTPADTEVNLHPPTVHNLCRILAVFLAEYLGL

By Papp A→B is commonly meant the apparent permeability from the apical to the basolateral side of a cell layer. Usually IC50 stands for the point on the concentration scale where inhibition reaches its midpoint. A word on the efflux ratio: it is a quotient of directional permeabilities that is used to spot active efflux.

For the compound `Cn1cnnc1C1(F)CCN(c2c(C#N)ccnc2-c2ccc(F)nc2)CC1` [Example 1], in data set [1], the apparent permeability from apical to basolateral (Papp A→B) was found to be 28 ×10⁻⁶ cm/s. Further, the values for the half-inhibitory concentration (IC50) in data set [2] and in data set [3] were 51 nM and 168 nM, respectively.
With `Cn1cnnc1C1CCN(c2c(C#N)ccnc2-c2ccc(F)nc2)CC1` [Example 2], the efflux ratio in data set [1] turned out to be 3.5. Further, the Papp A→B in data set [1] amounted to 4.8 ×10⁻⁶ cm/s. Moreover, the IC50 in data set [2] was 60 nM; at QPCT, 17 nM; in data set [3], 245 nM; at QPCTL, 2 nM.
For `Cn1cnnc1C1(C)CCN(c2c(C#N)ccnc2-c2ccc(F)nc2)CC1` [Example 3], in data set [1], the efflux ratio is 8.4. This compound gave a Papp A→B in data set [1] of 4.9 ×10⁻⁶ cm/s. Besides, the IC50 in data set [2] was 29 nM; at QPCT it was 2 nM; in data set [3] it was 467 nM; on QPCTL, 2 nM.
With `CC(C)Oc1cc(-c2nccc(C#N)c2N2CCC(c3nncn3C)CC2)cnc1F` [Example 4], in data set [1], the efflux ratio was 5.9. This compound had a Papp A→B in data set [1] of 8.5 ×10⁻⁶ cm/s. The IC50 is 38 nM in data set [2], 12 nM on QPCT, 182 nM in data set [3] and 1 nM on QPCTL.
For `COc1cc(-c2nccc(C#N)c2N2CCC(c3nncn3C)CC2)cnc1F` [Example 5], in data set [1], the efflux ratio turned out to be 14. The same compound displayed a Papp A→B in data set [1] of 2 ×10⁻⁶ cm/s. Also, the IC50 in data set [2] turned out to be 44 nM; on QPCT, 13 nM; in data set [3], 350 nM; on QPCTL, 2 nM.
For the compound `Cc1cc(-c2nccc(C#N)c2N2CCC(F)(c3nncn3C)CC2)cnc1F` [Example 6], in data set [1], the efflux ratio came to 2.3. The Papp A→B in data set [1] came out at 34 ×10⁻⁶ cm/s. Besides, the IC50 in data set [2] is 34 nM; on QPCT it was 8 nM; in data set [3] it was 190 nM; at QPCTL it was 2 nM.
For `COc1cc(-c2nccc(C#N)c2N2CCC(F)(c3nncn3C)CC2)cnc1F` [Example 7], the efflux ratio in data set [1] worked out at 3.3. This compound also showed a Papp A→B in data set [1] of 18 ×10⁻⁶ cm/s. Besides, the IC50 in data set [2] turned out to be 27 nM; at QPCT, 12 nM; in data set [3] it was 214 nM; at QPCTL it was 2 nM.
In data set [1], `Cn1cnnc1C1(F)CCN(c2c(C#N)ccnc2-c2cnc3nn(C(C)(C)C)cc3c2)CC1` [Example 8] displayed a Papp A→B of 1.3 ×10⁻⁶ cm/s. For the same compound, the results for the IC50 in data set [2] and in data set [3] were 22 nM and 25 nM, respectively.
Take `Cn1cnnc1C1CCN(c2c(-c3ccc(F)nc3)ccnc2C#N)CC1` [Example 9]: in data set [1], the efflux ratio amounted to 7.8. The same compound showed an apparent permeability from apical to basolateral (Papp A→B) in data set [1] of 1.8 ×10⁻⁶ cm/s. Further, the IC50 on QPCT stood at 26 nM; in data set [3], 1090 nM; on QPCTL it was 4 nM.
In the case of `Cn1cnnc1C1(F)CCN(c2c(-c3ccc(F)nc3)ccnc2C#N)CC1` [Example 10], the efflux ratio in data set [1] worked out at 5.6. For the same compound, the Papp A→B in data set [1] turned out to be 11 ×10⁻⁶ cm/s. Moreover, the values for the 50% inhibitory concentration (IC50) (on QPCT; in data set [3]; at QPCTL) were 8 nM, 352 nM and 4 nM, respectively.
Take `Cn1cnnc1C1(C)CCN(c2c(-c3ccc(F)nc3)ccnc2C#N)CC1` [Example 11]: the efflux ratio in data set [1] is 11.6. In data set [1], the Papp A→B is 3.1 ×10⁻⁶ cm/s. Moreover, the IC50 in data set [2] stood at 237 nM; on QPCT, 11 nM; in data set [3], 1820 nM; at QPCTL it was 14 nM.
Take `Cn1cnnc1C1(F)CCN(c2c(C#N)ccnc2-c2cnc3nnc(C(C)(C)C)n3c2)CC1` [Example 12]: in data set [1], the efflux ratio came to 11.2. This compound also yielded a Papp A→B in data set [1] of 2.5 ×10⁻⁶ cm/s. Moreover, the IC50 came to 31 nM in data set [2], 2 nM at QPCT, 53 nM in data set [3] and 2 nM at QPCTL.
As for `Cn1cnnc1C1(F)CCN(c2c(C#N)ccnc2-c2cnc3nc(C(C)(C)C)cn3c2)CC1` [Example 13], the efflux ratio in data set [1] turned out to be 35. In data set [1], this compound displayed a Papp A→B of 1 ×10⁻⁶ cm/s. For the same compound, the IC50 in data set [2] amounted to 22 nM; on QPCT, 1 nM; in data set [3] it was 65 nM; at QPCTL it was 1 nM.
With `Cn1cnnc1C1(F)CCN(c2c(C#N)ccnc2-c2cnn3ncccc23)CC1` [Example 14], in data set [1], the efflux ratio worked out at 0.6. In addition, the Papp A→B in data set [1] was 41 ×10⁻⁶ cm/s. The IC50 was found to be 116 nM in data set [2], 10 nM at QPCT, 436 nM in data set [3] and 11 nM at QPCTL.
Turning to `Cn1cnnc1C1(F)CCN(c2c(C#N)ccnc2-c2cnc3nc(C(F)(F)F)cn3c2)CC1` [Example 15], the efflux ratio in data set [1] was 14.1. Also, in data set [1], the Papp A→B was 0.9 ×10⁻⁶ cm/s. The IC50 in data set [2] amounted to 33 nM; at QPCT, 1 nM; in data set [3], 59 nM; on QPCTL, 1 nM.
Take `Cc1cc(C#N)c(N2CCC(F)(c3nncn3C)CC2)c(-c2ccc(F)nc2)n1` [Example 16]: the efflux ratio in data set [1] is 1.7. The same compound gave an apical-to-basolateral permeability (Papp A→B) in data set [1] of 40 ×10⁻⁶ cm/s. Besides, the IC50 in data set [2] came to 8 nM; on QPCT it was 4 nM; in data set [3], 86 nM; on QPCTL, 1 nM.
For `Cn1cnnc1C1(F)CCN(c2c(C#N)cc(C(F)(F)F)nc2-c2ccc(F)nc2)CC1` [Example 17], the efflux ratio in data set [1] was 1.3. Besides, the Papp A→B in data set [1] was 38 ×10⁻⁶ cm/s. Also, the IC50 in data set [2] came to 49 nM; at QPCT it was 8 nM; in data set [3], 92 nM; on QPCTL it was 4 nM.
For the compound `Cn1cnnc1C1(F)CCN(c2c(C#N)ccnc2-c2cnc(F)c(Cl)c2)CC1` [Example 18], in data set [1], the efflux ratio turned out to be 1.4. Also, the Papp A→B in data set [1] was determined as 41 ×10⁻⁶ cm/s. Besides, the IC50 worked out at 112 nM in data set [2], 23 nM at QPCT, 482 nM in data set [3] and 8 nM at QPCTL.
In the case of `Cn1cnnc1C1(F)CCN(c2c(C#N)ccnc2-c2cncc(-n3cccn3)c2)CC1` [Example 19], the efflux ratio in data set [1] was 6.5. The compound further registered a Papp A→B in data set [1] of 4.9 ×10⁻⁶ cm/s. The IC50 in data set [2] amounted to 18 nM; at QPCT it was 10 nM; in data set [3], 509 nM; on QPCTL, 2 nM.
Regarding `Cn1cnnc1C1(F)CCN(c2c(C#N)ccnc2-c2cncc(C3CC3)c2)CC1` [Example 20], the IC50 in data set [2] turned out to be 342 nM; at QPCT it was 29 nM; in data set [3], 1950 nM; at QPCTL, 21 nM.
With `Cn1cc2cc(-c3nccc(C#N)c3N3CCC(F)(c4nncn4C)CC3)cnc2n1` [Example 21], the IC50 in data set [2] was determined as 22 nM; on QPCT it was 3 nM; in data set [3], 322 nM; on QPCTL it was 1 nM.
Take `Cn1cnnc1C1(F)CCN(c2c(C#N)ccnc2-c2cnc(F)c(F)c2)CC1` [Example 23]: the IC50 in data set [2] was determined as 114 nM; on QPCT, 32 nM; in data set [3], 1660 nM; at QPCTL, 6 nM.
On to `Cn1cnnc1C1(F)CCN(c2c(C#N)ccnc2-c2cn[nH]c2)CC1` [Example 24], for which the IC50 in data set [2] was 693 nM; at QPCT, 31 nM; in data set [3], 1770 nM; at QPCTL it was 18 nM.
For `Cn1cnnc1C1(F)CCN(c2c(C#N)ccnc2-c2cnsc2)CC1` [Example 25] the same measures were 44 nM, 30 nM, 1610 nM and 10 nM.
`Cn1cnnc1C1(F)CCN(c2c(C#N)ccnc2-c2cnc(F)c(OCC3CC3)c2)CC1` [Example 26]: in data set [1], the efflux ratio came to 1.7. In data set [1], this compound returned a Papp A→B of 45 ×10⁻⁶ cm/s. Also, the IC50 in data set [2] was found to be 7 nM; in data set [3], 103 nM.
As for `C=CCOc1cc(-c2nccc(C#N)c2N2CCC(F)(c3nncn3C)CC2)cnc1F` [Example 28], the IC50 was found to be 33 nM in data set [2], 3 nM at QPCT, 180 nM in data set [3] and 2 nM at QPCTL.
Consider `Cn1cnnc1C1(F)CCN(c2c(C#N)ccnc2-c2cnc3nn(C(C)(C)C(F)(F)F)cc3c2)CC1` [Example 29], for which, in data set [1], the efflux ratio was found to be 15.2 and the apparent permeability from apical to basolateral (Papp A→B) is 2.5 ×10⁻⁶ cm/s. In addition, the half-inhibitory concentration (IC50) in data set [2] worked out at 13 nM. For the same compound, the IC50 in data set [3] was 81 nM.
Regarding `Nc1ncc(C2CCN(c3ncccc3-c3ccc(F)nc3)CC2)s1` [Example 1094, reference compound], in data set [3], the IC50 is 3240 nM.
Turning to `Nc1nnc(C2CCN(c3ncccc3-c3ccc(F)nc3)CC2)s1` [Example 1095, reference compound], the half-maximal inhibitory concentration (IC50) in data set [2] was 161 nM; in data set [3], 2200 nM.
`Cn1cnnc1C1CCN(c2ncccc2-c2ccc(F)nc2)CC1` [SEN177, reference compound]: the IC50 came to 214 nM in data set [2] and 1360 nM in data set [3].
In the case of `Cn1cnnc1C1CCN(c2ncccc2-c2cccnc2)CC1` [SEN180, reference compound], the IC50 is 868 nM in data set [2] and 2970 nM in data set [3].
